Experimental data: patent US8609610B2, “Inhibitors of the trypsin-like site of the proteasome and methods of use thereof” (Trustees of Dartmouth College, priority 2011, dated 2013)

Tests used:
[1] = test system: chymotrypsin-like sites (β5) of proteasome in MM cells; assay: PROTEASOMEGLO assay of proteasome inhibition in MM cells; assay type: cell-based; details: KMS-12-BM, washout
[2] = test system: T1, chymotrypsin-like sites (β5) of proteasome in MM cells; assay: as above; assay type: cell-based; details: for Inhibition of chymotrypsin-like sites, 6 h −NC-022 / Inhibition of chymotrypsin-like sites, 6 h +NC-022: washout
T1 construct: other: NCI-H929; bortezomib 100 nM 1 h; bortezomib 11 nM 1 h; bortezomib 3.7 nM 1 h; bortezomib 33 nM 1 h; other: NCI-H9

[3] = target: T2, trypsin-like sites (β2) of proteasome in MM cells (Homo sapiens, UniProt Q99436); assay: as above; assay type: cell-based; details: for Inhibition of trypsin-like sites, 6 h +NC-022 / Inhibition of trypsin-like sites, 6 h −NC-022: washout
T2 construct: endogenous in cells; host or cells: NCI-H929, RPMI-8226 and other MM cell lines
T2 sequence (Q99436 44-277): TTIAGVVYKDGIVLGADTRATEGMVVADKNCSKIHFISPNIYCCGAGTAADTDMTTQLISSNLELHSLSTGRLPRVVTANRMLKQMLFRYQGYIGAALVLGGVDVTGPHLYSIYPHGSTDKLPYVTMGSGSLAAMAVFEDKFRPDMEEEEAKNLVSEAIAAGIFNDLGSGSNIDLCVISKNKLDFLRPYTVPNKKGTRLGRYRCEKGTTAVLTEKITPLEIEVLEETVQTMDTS

NCI-H929 cells = assay: ALAMAR BLUE cell viability assay; assay type: cell-based; details: NCI-H929, viability at 48 h
Protocol: (§1) RPMI-8226 and NCI-H929 cells were cultured in RPMI-1640 supplemented with 10% fetal bovine serum, penicillin, streptomycin, and plasmocin in 5% CO2 humidified incubator. HEK-293T cells were cultured in DMEM containing 10% fetal calf serum, 10 units/mL penicillin, and 10 μg/mL streptomycin in a 7% CO2 humidified incubator. Viability of multiple myeloma cells was measured with ALAMAR BLUE mitochondrial dye conversion assay. Viability of peripheral blood mononuclear cells (PBMNCs) was measured using CELL TITER-GLO luminescent cell viability assay (Promega), which is based on quantification of ATP present in the cells. Caspase-3/7 activity was measured using APO-ONE 3/7 homogeneous assay (Promega).

KMS-12-BM cells = assay: ALAMAR BLUE cell viability assay; assay type: cell-based; details: viability at 48 h
Protocol: as §1

chymotrypsin-like sites = details: patients treated with bortezomib, maximal tolerated doses; cited from earlier work
[4] = KMS-12-BM, bortezomib 33.3 nM 1 h
[5] = KMS-12-BM, bortezomib 100 nM 1 h
[6] = KMS-12-BM, bortezomib 300 nM 1 h
[7] = KMS-12-BM, bortezomib 900 nM 1 h
[8] = NCI-H929, bortezomib 3.7 nM 1 h
[9] = NCI-H929, bortezomib 100 nM 1 h

CC(C)C[C@H](NC(=O)[C@H](Cc1ccccc1)NC(=O)c1cnccn1)B(O)O [Bortezomib]
Inhibition of chymotrypsin-like sites, 6 h +NC-022 ([1]; bortezomib 33.3 nM 1 h): 62 ± 7 % control
Inhibition of chymotrypsin-like sites, 6 h +NC-022 ([1]; bortezomib 100 nM 1 h): 75 ± 6 % control
Inhibition of chymotrypsin-like sites, 1 h [2, 4]: 82 ± 8 % control
Inhibition of chymotrypsin-like sites, 6 h −NC-022 [2, 4]: 56 ± 24 % control
Inhibition of chymotrypsin-like sites, 1 h [2, 5]: 90 ± 6 % control
Inhibition of chymotrypsin-like sites, 6 h −NC-022 [2, 5]: 64 ± 23 % control
Inhibition of chymotrypsin-like sites, 1 h [2, 6]: 93 ± 3 % control
Inhibition of chymotrypsin-like sites, 6 h +NC-022 [2, 6]: 83 ± 6 % control
Inhibition of chymotrypsin-like sites, 6 h −NC-022 [2, 6]: 76 ± 18 % control
Inhibition of chymotrypsin-like sites, 1 h [2, 7]: 93 ± 5 % control
Inhibition of chymotrypsin-like sites, 6 h +NC-022 [2, 7]: 88 ± 5 % control
Inhibition of chymotrypsin-like sites, 6 h −NC-022 [2, 7]: 84 ± 16 % control
Inhibition of chymotrypsin-like sites, 1 h [2, 8]: 9 ± 7 % control
Inhibition of chymotrypsin-like sites, 6 h +NC-022 [2, 8]: 14 ± 13 % control
Inhibition of chymotrypsin-like sites, 6 h −NC-022 [2, 8]: 13 ± 1 % control
Inhibition of chymotrypsin-like sites, 1 h ([2]; NCI-H929, bortezomib 11 nM 1 h): 64 ± 7 % control
Inhibition of chymotrypsin-like sites, 6 h +NC-022 ([2]; NCI-H929, bortezomib 11 nM 1 h): 34 ± 29 % control
Inhibition of chymotrypsin-like sites, 6 h −NC-022 ([2]; NCI-H929, bortezomib 11 nM 1 h): 41 ± 3.5 % control
Inhibition of chymotrypsin-like sites, 1 h ([2]; NCI-H929, bortezomib 33 nM 1 h): 89 ± 2 % control
Inhibition of chymotrypsin-like sites, 6 h +NC-022 ([2]; NCI-H929, bortezomib 33 nM 1 h): 48 ± 35 % control
Inhibition of chymotrypsin-like sites, 6 h −NC-022 ([2]; NCI-H929, bortezomib 33 nM 1 h): 85 ± 4 % control
Inhibition of chymotrypsin-like sites, 1 h [2, 9]: 96 ± 2 % control
Inhibition of chymotrypsin-like sites, 6 h +NC-022 [2, 9]: 93 ± 2 % control
Inhibition of chymotrypsin-like sites, 6 h −NC-022 [2, 9]: 86 ± 1 % control
Inhibition of trypsin-like sites, 1 h [3, 4]: 10 ± 11 % control
Inhibition of trypsin-like sites, 6 h +NC-022 [3, 4]: 92 ± 0 % control
Inhibition of trypsin-like sites, 6 h −NC-022 [3, 4]: 8 ± 15 % control
Inhibition of trypsin-like sites, 1 h [3, 5]: 19 ± 3 % control
Inhibition of trypsin-like sites, 6 h +NC-022 [3, 5]: 92 ± 1 % control
Inhibition of trypsin-like sites, 6 h −NC-022 [3, 5]: 15 ± 11 % control
Inhibition of trypsin-like sites, 1 h [3, 6]: 22 ± 12 % control
Inhibition of trypsin-like sites, 6 h +NC-022 [3, 6]: 91 ± 2 % control
Inhibition of trypsin-like sites, 6 h −NC-022 [3, 6]: 24 ± 18 % control
Inhibition of trypsin-like sites, 1 h [3, 7]: 28 ± 5 % control
Inhibition of trypsin-like sites, 6 h +NC-022 [3, 7]: 93 ± 1 % control
Inhibition of trypsin-like sites, 6 h −NC-022 [3, 7]: 26 ± 19 % control
Inhibition of trypsin-like sites, 1 h [3, 8]: 0 ± 7 % control
Inhibition of trypsin-like sites, 6 h +NC-022 [3, 8]: 93 ± 2 % control
Inhibition of trypsin-like sites, 6 h −NC-022 [3, 8]: 6 ± 4 % control
Inhibition of trypsin-like sites, 1 h ([3]; NCI-H929, bortezomib 11 nM 1 h): 8 ± 11 % control
Inhibition of trypsin-like sites, 6 h +NC-022 ([3]; NCI-H929, bortezomib 11 nM 1 h): 93 ± 2 % control
Inhibition of trypsin-like sites, 6 h −NC-022 ([3]; NCI-H929, bortezomib 11 nM 1 h): 14 ± 2 % control
Inhibition of trypsin-like sites, 1 h ([3]; NCI-H929, bortezomib 33 nM 1 h): 26 ± 15 % control
Inhibition of trypsin-like sites, 6 h +NC-022 ([3]; NCI-H929, bortezomib 33 nM 1 h): 94 ± 1 % control
Inhibition of trypsin-like sites, 6 h −NC-022 ([3]; NCI-H929, bortezomib 33 nM 1 h): 31 ± 0 % control
Inhibition of trypsin-like sites, 1 h [3, 9]: 36 ± 17 % control
Inhibition of trypsin-like sites, 6 h +NC-022 [3, 9]: 96 ± 1 % control
Inhibition of trypsin-like sites, 6 h −NC-022 [3, 9]: 45 ± 2 % control
Viability +NC-022 (NCI-H929 cells; bortezomib 3.7 nM 1 h): 85 ± 3 % control
Viability −NC-022 (NCI-H929 cells; bortezomib 3.7 nM 1 h): 107 ± 5 % control
Viability +NC-022 (NCI-H929 cells; bortezomib 11 nM 1 h): 65 ± 1 % control
Viability −NC-022 (NCI-H929 cells; bortezomib 11 nM 1 h): 106 ± 2 % control
Viability +NC-022 (NCI-H929 cells; bortezomib 33 nM 1 h): 19 ± 19 % control
Viability −NC-022 (NCI-H929 cells; bortezomib 33 nM 1 h): 53 ± 17 % control
Viability +NC-022 (NCI-H929 cells; bortezomib 100 nM 1 h): 1.9 ± 1.5 % control
Viability −NC-022 (NCI-H929 cells; bortezomib 100 nM 1 h): 2.9 ± 1.5 % control
Viability +NC-022 (KMS-12-BM cells; bortezomib 33.3 nM 1 h): 72 ± 1 % control
Viability −NC-022 (KMS-12-BM cells; bortezomib 33.3 nM 1 h): 98 ± 13 % control
Viability +NC-022 (KMS-12-BM cells; bortezomib 100 nM 1 h): 42 ± 10 % control
Viability −NC-022 (KMS-12-BM cells; bortezomib 100 nM 1 h): 92 ± 9 % control
Viability +NC-022 (KMS-12-BM cells; bortezomib 300 nM 1 h): 14 ± 11 % control
Viability −NC-022 (KMS-12-BM cells; bortezomib 300 nM 1 h): 66 ± 9 % control
Viability +NC-022 (KMS-12-BM cells; bortezomib 900 nM 1 h): 3.8 ± 2.5 % control
Viability −NC-022 (KMS-12-BM cells; bortezomib 900 nM 1 h): 14 ± 12 % control
inhibition of the chymotrypsin-like sites in patients (chymotrypsin-like sites): ≤ 70%
